# In patent US20210177803A1, “NEW PHARMACEUTICAL USE FOR THE TREATMENT OF HEART FAILURE” (Novartis AG, priority 2018, published 2021):
# Where two headings read alike, the source gives them in different places.
# How the values were obtained:
# [1] = test system: patients with HFrEF following hemodynamic stabilization after an episode of ADHF; settings: for Proportion of patients achieving the target dose of 200 mg LCZ696 b.i.d.: 10 weeks after randomization; for Odds ratio (OR) for up-titration success to 200 mg b.i.d.: multivariate logistic regression;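 on Deaths attributed to the study treatment by the investigator: adverse events recorded in patients during the 10-week treatment phase following randomization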;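 on SAE hyperkalemia, patients: adverse events recorded in patients during the 10-week treatment phase following randomization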
# Text: The study design comprises three Epochs (phases): the Screening Epoch; the Treatment Epoch defined as 10 weeks after Randomization; and 16-week Follow-up Epoch. Patients were stratified into three groups based on their pre-admission treatment status: (a) receiving an angiotensin-converting enzyme inhibitor (ACEI), (b) receiving an angiotensin receptor blocker (ARB), or (c) ACEI/ARB-naïve patients.
# The study population consists of patients hospitalized for an episode of acute decompensation of heart failure who are diagnosed with CHF NYHA class II-to-IV and reduced ejection fraction (LVEF 40%). Patients can be either with first presentation (de novo), or acute decompensation of HF due to deterioration in patients with a prior history of (chronic) HF.
# Inclusion Criteria: • 1. Patients hospitalized due to acute decompensated HF episode (ADHF) as primary diagnosis) and consistent Signs and Symptoms. • 2. Diagnosis of HF New York Heart Association class II-to-IV and reduced ejection fraction: Left ventricular ejection fraction 40% at Screening. • 3. […] Stabilized (while in the hospital) for at least 24 h leading to Randomization defined as: • No need for IV diuretics in the past 24 h prior to signing ICF • Systolic blood pressure (SBP) 110 mm Hg for at least 6 h prior to Randomization • 5. Meeting one of the following criteria: • Patients on any dose of ACEI or ARB at screening • ACEI/ARB naïve patients and patients not on ACEI or ARB for at least 4 weeks before screening.
# The basis for up-titration toward the target dose was taking into consideration tolerability (i.e., incidence of hypotension, renal or hepatic impairment and hyperkalemia) based on clinical evaluation and laboratory assessment.
# [2] = test system: patients with HFrEF following hemodynamic stabilization after an episode of ADHF;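 on Deaths attributed to the study treatment by the investigator: adverse events recorded in patients during the 10-week treatment phase following randomization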;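 on SAE hyperkalemia, patients: adverse events recorded in patients during the 10-week treatment phase following randomization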
# [3] = not naive to ACEI/ARB (N = 665)
structure (smiles),measurement,setting,value
"CCCCC(=O)N(Cc1ccc(-c2ccccc2-c2nn[n-]n2)cc1)[C@H](C(=O)[O-])C(C)C.CCOC(=O)[C@H](C)C[C@@H](Cc1ccc(-c2ccccc2)cc1)NC(=O)CCC(=O)[O-].[Na+].[Na+].[Na+] [LCZ696, trisodium [3((1S,3R)-1-biphenyl-4-ylmethyl-3-ethoxycarbonyl-1-butylcarbamoyl) propionate-(S)-3′-methyl-2′-(pentanoyl{2″-(tetrazol-5-ylate)biphenyl-4′-ylmethyl}amino)butyrate]hemipentahydrate]","Relative RR, primary endpoint (target dose 200 mg b.i.d.)",[1]; ACEI or ARB strata compared to naive,1.01
same,Patients who achieved the target dose,[1]; ACEI/ARB naïve patients,48.3%
same,"RRR, achieved target dose",[1]; ACEI/ARB naïve vs prior ACEI/ARB use,1.008
same,Patients who achieved and maintained any dose of LCZ696 for at least 2 weeks leading to week 10,[1]; both groups,More than 86%
same,Subjects maintained on any dose at week 10,[1]; both groups (ACEI/ARB naïve and not naïve),88%
same,Patients able to achieve and maintain any dose at week 10,[1]; de novo HF patients,90%
same,Patients who achieved the target dose,[1]; de novo HF patients,56.0%
same,"RRR, achieved target dose",[1]; de novo HF vs prior HF diagnosis,1.30
same,Feasibility and tolerability of early initiation (in words),[1]; in-hospital or shortly after discharge,feasible and overall well tolerated
same,Proportion of patients achieving the target dose of 200 mg LCZ696 b.i.d.,[1]; post-discharge arm,50.4%
same,Patients who achieved and maintained any dose of LCZ696 for at least 2 weeks leading to week 10,[1]; post-discharge initiation,88.8%
same,Patients who achieved and maintained either 100 mg b.i.d. or 200 mg b.i.d. for at least 2 weeks leading to week 10,[1]; post-discharge initiation,68%
same,"RRR, achieved and maintained 100 mg or 200 mg b.i.d.",[1]; pre- vs post-discharge,0.919
same,"RRR, achieved and maintained any dose",[1]; pre- vs post-discharge,0.973
same,"Relative risk ratio (RRR), achieving target dose 200 mg b.i.d.","[1]; pre- vs post-discharge, 10 weeks",0.893
same,Proportion of patients achieving the target dose of 200 mg LCZ696 b.i.d.,[1]; pre-discharge arm,45.0%
same,Patients who achieved and maintained any dose of LCZ696 for at least 2 weeks leading to week 10,[1]; pre-discharge initiation,86.4%
same,Patients who achieved and maintained either 100 mg b.i.d. or 200 mg b.i.d. for at least 2 weeks leading to week 10,[1]; pre-discharge initiation,62.5%
same,Odds ratio (OR) for up-titration success to 200 mg b.i.d.,[1]; predictor: assignment to pre- or post-discharge initiation,1.21
same,Odds ratio (OR) for up-titration success to 200 mg b.i.d.,[1]; predictor: prior use of an ACEI or ARB,1.04
same,Patients who achieved the target dose,[1]; subjects with a prior HF diagnosis,44.8%
same,Patients who achieved the target dose,[1]; subjects with prior ACEI/ARB use,47.9%
same,Deaths attributed to the study treatment by the investigator,[2]; both arms,None
same,"SAE hyperkalemia, patients",[2]; both treatment groups,< 1%
same,"SAE hypotension, patients",[2]; both treatment groups,< 1%
same,AE of interest: Blood creatinine increased,[2]; de novo HFrEF (N = 286),3 (1.0) n (%)
same,AE of interest: Cardiac failure,[2]; de novo HFrEF (N = 286),13 (4.5) n (%)
same,AE of interest: Hyperkalemia,[2]; de novo HFrEF (N = 286),24 (8.4) n (%)
same,AE of interest: Hypotension,[2]; de novo HFrEF (N = 286),26 (9.1) n (%)
same,AE of interest: Renal failure,[2]; de novo HFrEF (N = 286),3 (1.0) n (%)
same,AE of interest: Renal impairment,[2]; de novo HFrEF (N = 286),8 (2.8) n (%)
same,At least one AE,[2]; de novo HFrEF (N = 286),178 (62.2) n (%)
same,At least one serious AE,[2]; de novo HFrEF (N = 286),33 (11.5) n (%)
same,Death,[2]; de novo HFrEF (N = 286),1 (0.3) n (%)
same,Treatment interruption due to AE,[2]; de novo HFrEF (N = 286),22 (7.7) n (%)
same,Rate of permanent discontinuation of study drug due to AEs,"[2]; initiated post-discharge (text, secondary endpoint)",3.5%
same,Rate of permanent discontinuation of study drug due to AEs,"[2]; initiated pre-discharge (text, secondary endpoint)",4.5%
same,AE of interest: Blood creatinine increased,[2]; naive to ACEI/ARB (N = 326),6 (1.8) n (%)
same,AE of interest: Cardiac failure,[2]; naive to ACEI/ARB (N = 326),17 (5.2) n (%)
same,AE of interest: Hyperkalemia,[2]; naive to ACEI/ARB (N = 326),20 (7.1) n (%)
same,AE of interest: Hypotension,[2]; naive to ACEI/ARB (N = 326),29 (8.9) n (%)
same,AE of interest: Renal failure,[2]; naive to ACEI/ARB (N = 326),6 (1.8) n (%)
same,AE of interest: Renal impairment,[2]; naive to ACEI/ARB (N = 326),8 (2.5) n (%)
same,At least one AE,[2]; naive to ACEI/ARB (N = 326),210 (64.4) n (%)
same,At least one serious AE,[2]; naive to ACEI/ARB (N = 326),47 (14.4) n (%)
same,Treatment interruption due to AE,[2]; naive to ACEI/ARB (N = 326),32 (9.8) n (%)
same,AE of interest: Blood creatinine increased,[2]; [3],23 (3.5) n (%)
same,AE of interest: Cardiac failure,[2]; [3],54 (8.1) n (%)
same,AE of interest: Hyperkalemia,[2]; [3],86 (12.9) n (%)
same,AE of interest: Hypotension,[2]; [3],79 (11.9) n (%)
same,AE of interest: Renal failure,[2]; [3],13 (2.0) n (%)
same,AE of interest: Renal impairment,[2]; [3],32 (4.8) n (%)
same,At least one AE,[2]; [3],446 (67.1) n (%)
same,At least one serious AE,[2]; [3],116 (17.4) n (%)
same,Treatment interruption due to AE,[2]; [3],77 (11.8) n (%)
same,"Mortality, patients who died",[2]; post-discharge arm,2.0%
same,"AE cardiac failure, patients",[2]; post-discharge group,8.5%
same,"AE dizziness, patients",[2]; post-discharge group,4.2%
same,"AE hyperkalemia, patients",[2]; post-discharge group,11.3%
same,"AE hypotension, patients",[2]; post-discharge group,9.1%
same,Patients with SAEs,[2]; post-discharge group,17.7%
same,"SAE acute kidney injury, patients",[2]; post-discharge group,1.4%
same,"SAE cardiac failure, patients",[2]; post-discharge group,7.7%
same,Permanent treatment discontinuation due to SAEs,"[2]; post-discharge, N = 496",13 (2.6) n (%)
same,Permanent treatment discontinuation due to non-SAEs,"[2]; post-discharge, N = 496",7 (1.4) n (%)
same,Serious adverse event: Acute kidney injury,"[2]; post-discharge, N = 496",7 (1.4) n (%)
same,Serious adverse event: Atrial fibrillation,"[2]; post-discharge, N = 496",4 (0.8) n (%)
same,Serious adverse event: Cardiac failure(acute/chronic),"[2]; post-discharge, N = 496",38 (7.7) n (%)
same,Serious adverse event: Chronic obstructive pulmonary disease,"[2]; post-discharge, N = 496",4 (0.8) n (%)
same,Serious adverse event: Hyperkalemia,"[2]; post-discharge, N = 496",2 (0.4) n (%)
